# Results taken from article PMC11620517, “Novel hydrazone compounds with broad-spectrum antiplasmodial activity and synergistic interactions with antimalarial drugs” (Antimicrobial Agents and Chemotherapy, 2024).
# Where “and” joins values, the source holds several entries; their conditions need not be identical. Equal values may be shown once. Read-outs that look alike come from different tables or passages of the source.
# Columns and labels:
# [1] = system: P. falciparum oocyst formation in Anopheles stephensi mosquitoes; experiment: P. falciparum oocyst inhibition assay (SMFA); type: in vivo, Plasmodium falciparum; conditions: for Mean oocyst # excluding zeros (Range): P. falciparum midgut infection in An. stephensi mosquitoes; for Median (oocysts) / Prevalence %: pooled from two representative experiments
# Method: As previously described, P. falciparum infections were performed using SMFA with NF54 gametocyte cultures diluted to 0.3% stage V gametocytemia ([62]). Infected blood (O+ human 45% hematocrit in serum) was offered to mosquitoes for 30 minutes, and engorged mosquitoes were maintained on a 10% corn syrup solution supplemented by four concentrations of CB compounds (1, 2.5, 5, and 10 µM) at […] ([63]), with DMSO serving as a control. Eight days post-infection, mosquito midguts were dissected and stained with 0.2% mercurochrome for 30 minutes, and oocysts were quantified under a light microscope ([63]).
# P. falciparum C2B = experiment: Malaria SYBR Green I-Based Fluorescence (MSF) assay, blood stages; type: cell-based; conditions: Plasmodium falciparum, 72 h, read-out: IC50 (µM) (±SD) for strain: C2B
# Method: (§1) MSF assays were performed in vitro with four P. falciparum strains: D6 (drug sensitive), TM91-C235 (multidrug resistant), W2 (CQ resistant), and C2B (multidrug resistant against ATQ). Parasite strains were kept continuously in long-term cultures as described ([22]). Pre-dosed 384-well plates containing […] serial dilutions of CB compounds (0.0098–20 µM) were prepared using the Tecan Freedom Evo liquid handling system (Tecan USA, Inc., Durham, NC, USA) and were stored at 4°C. A CQ control plate (2,000 ng/mL) was included in each run. Based on modifications of previous methods ([17], [55]), late-ring or early-trophozoite stages were cultured in pre-dosed plates with 0.3% parasitemia and 2% hematocrit. Cultures were incubated for 72 hours at 37°C in a controlled atmosphere of 5% CO2, 5% O2, and 90% N2. Lysis buffer, consisting of 20 mM Tris HCl, 5 mM EDTA, 1.6% Triton X, 0.016% saponin, and SYBR Green I dye at a 20X concentration (Invitrogen #S-7567), was added to the plates for a final 10X SYBR Green concentration. Plates containing cell culture media and lysis buffer were incubated in the dark at 25°C for 24 hours, and the relative fluorescence units (RFU) were measured using the Tecan Genios Plus (Tecan USA, Inc.).
# P. falciparum W2 = experiment: as above; type: cell-based; conditions: Plasmodium falciparum, W2; blood stages, 72 hours, CQ resistant strain; read-out: IC50 (µM) (±SD) for strain: W2
# Method: as §1
# P. falciparum TM91c235 = experiment: as above; type: cell-based; conditions: Plasmodium falciparum; blood stages, 72 hours, multidrug resistant strain; read-out: IC50 (µM) (±SD) for strain: TM91c235
# Method: as §1
# P. falciparum D6 = experiment: as above; type: cell-based; conditions: Plasmodium falciparum, D6; blood stages, 72 hours, drug-sensitive strain; read-out: IC50 (µM) (±SD) for strain: D6
# Method: as §1
# human GST = biological target: T1, human GST (Homo sapiens, UniProt P08263); experiment: GST inhibition assay (CDNB); type: biochemical; conditions: 6-point 1–50 µM
# T1 construct: The open reading frames encoding PfGST, PbGST, and hGST were gene-synthesized; TEV cleavage site (C); Avitag (C); purchased InterRayBio, LLC; host or cells: E. coli BL21 (DE3)
# T1 sequence (P08263 1-222): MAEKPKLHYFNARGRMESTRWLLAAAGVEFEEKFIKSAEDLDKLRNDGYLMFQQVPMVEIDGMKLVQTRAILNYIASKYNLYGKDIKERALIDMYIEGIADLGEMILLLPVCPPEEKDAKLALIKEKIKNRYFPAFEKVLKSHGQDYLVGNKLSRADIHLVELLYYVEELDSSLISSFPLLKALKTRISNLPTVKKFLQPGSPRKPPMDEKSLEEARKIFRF
# Method: (§2) Enzymatic activities of recombinant GSTs were determined spectrophotometrically using the chromogenic substrate 1-chloro-2,4-dinitrobenzene (CDNB). Recombinant GST (0.35 mg/mL) was mixed with 1 mM CDNB in 100 mM HEPES. Stock solutions (10 mM) of the CB compounds and hemin were prepared in 100% dimethyl sulfoxide (DMSO) and then diluted at 0.5% DMSO ([14]). Each inhibitor has six concentrations ranging from 1 to 50 µM. The reaction was initiated with 1 mM glutathione (GSH) after 15 minutes. Absorbance change at 340 nm was measured for 1 hour. The slope was converted to micromole per minute using Beer’s equation and the extinction coefficient for the product S-(2,4-dinitrophenyl)glutathione (ε340 nm = 9.6 mM^–1 cm^–1) ([14]). The assay was validated using human placenta GST (#G8642) as a positive control.
# [2] = biological target: T2, recombinant P. falciparum GST (Plasmodium falciparum, UniProt Q8ILQ7); experiment: GST inhibition assay (CDNB); type: biochemical; conditions: 6-point 1–50 µM
# T2 construct: The open reading frames encoding PfGST, PbGST, and hGST were gene-synthesized; TEV cleavage site (C); Avitag (C); purchased InterRayBio, LLC; host or cells: E. coli BL21 (DE3)
# T2 sequence (Q8ILQ7 1-211): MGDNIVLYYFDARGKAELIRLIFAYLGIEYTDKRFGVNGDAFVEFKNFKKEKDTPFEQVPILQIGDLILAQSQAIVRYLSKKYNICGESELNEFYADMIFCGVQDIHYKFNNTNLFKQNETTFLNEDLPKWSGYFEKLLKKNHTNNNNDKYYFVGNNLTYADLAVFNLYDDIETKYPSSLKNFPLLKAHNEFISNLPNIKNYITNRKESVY
# Method: as §2
structure (smiles),measurement,setting,value
O=C(N/N=C/c1cc(Br)ccc1O)/C(=C/C=C/c1ccccc1)NC(=O)c1ccccc1 [CB-50],Median oocyst #,[1]; 1 μM compound,8
same,Mean oocyst # excluding zeros (Range),[1]; 1 μM compound,18 (0-95)
same,Prevalence,"[1]; 1 μM compound, infection prevalence in mosquitoes",81
same,Median (oocysts),[1]; 1 µM,8
same,Prevalence %,[1]; 1 µM,82%
same,Prevalence,"[1]; 1 μM, single experiments",73 and 91 and 90
same,inhibition at 1 µM,"[1]; 1 μM, single experiments, read-out: % inhibition (mean)",48%
same,inhibition at 1 µM,"[1]; 1 μM, single experiments, read-out: % inhibition (median)",48%
same,Median oocyst #,[1]; 2.5 μM compound,9
same,Mean oocyst # excluding zeros (Range),[1]; 2.5 μM compound,26 (0-103)
same,Prevalence,"[1]; 2.5 μM compound, infection prevalence in mosquitoes",74
same,Median (oocysts),[1]; 2.5 µM,9
same,Prevalence %,[1]; 2.5 µM,74%
same,Prevalence,"[1]; 2.5 μM, single experiments",68 and 82 and 83
same,inhibition at 2.5 µM,"[1]; 2.5 μM, single experiments, read-out: % inhibition (mean)",38%
same,inhibition at 2.5 µM,"[1]; 2.5 μM, single experiments, read-out: % inhibition (median)",48%
same,inhibition at 2.5 µM,"[1]; 2.5 μM, single experiments, read-out: % inhibition (prevalence)",5%
same,Median oocyst #,[1]; 5 μM compound,7
same,Mean oocyst # excluding zeros (Range),[1]; 5 μM compound,15 (0-67)
same,Prevalence,"[1]; 5 μM compound, infection prevalence in mosquitoes",89
same,Median (oocysts),[1]; 5 µM,7
same,Prevalence %,[1]; 5 µM,89%
same,Prevalence,"[1]; 5 μM, single experiments",87 and 90 and 92
same,inhibition at 5 µM,"[1]; 5 μM, single experiments, read-out: % inhibition (mean)",19%
same,inhibition at 5 µM,"[1]; 5 μM, single experiments, read-out: % inhibition (median)",3%
same,Median oocyst #,[1]; 10 μM compound,7
same,Mean oocyst # excluding zeros (Range),[1]; 10 μM compound,18 (0-74)
same,Prevalence,"[1]; 10 μM compound, infection prevalence in mosquitoes",74
same,Median (oocysts),[1]; 10 µM,7
same,Prevalence %,[1]; 10 µM,74%
same,Prevalence,"[1]; 10 μM, single experiments",65 and 88 and 89
same,inhibition at 10 µM,"[1]; 10 μM, single experiments, read-out: % inhibition (mean)",52%
same,inhibition at 10 µM,"[1]; 10 μM, single experiments, read-out: % inhibition (median)",61%
same,oocyst formation inhibition,"[1]; 1 to 10 µM, midguts dissected 8 days after feeding",did not inhibit oocyst formation
same,IC50,P. falciparum C2B,1.89 µM
same,IC50,P. falciparum W2,1.15 µM
same,IC50,P. falciparum TM91c235,1.84 µM
same,IC50,P. falciparum D6,1.14 µM
same,GST inhibition,human GST,did not inhibit
same,GST inhibition,[2],did not inhibit
